Entries after “also recorded” stand apart in the source; their conditions may differ.
Assays:
Myeloperoxidase (MPO) = Myeloperoxidase (MPO) assay of colon extracts; assay type: in vivo, rat; conditions: sensitized rats, 5 mg/kg i.p. for four days
Method: Descending colons were placed in 10% buffered formalin and portions were frozen for myeloperoxidase (MPO) assays. Haematoxilin & Eosin stained parafin sections will be scored for inflammation by a pathologist.
Myeloperoxidase (MPO) assays were performed as described (Bhatia et al., Proc Natl Acad Sci USA 95:4760-4756, 1998). Frozen colon was homogenized in 20 mM phosphate buffer pH 7.4 and cetrifuged at 10,000× g for 10 minutes at 4° C. Pellet was resuspended in 50 mM phosphate buffer, pH 6.0 containing 0.5% hexadecyltrimethylammonium bromide. Samples were subjected to one cycle of freeze thawing, were incubated at 6° C. for 2 hrs and cetrifuged at 10,000× g for 5 min at 4° C. Change in absorbance at 655 nm was measured in reaction mix containing 1.6 mM TMB (Sigma) and 0.3 mM H2O2 on a Beckman DU-64 spectrophotometer. Activity was normalized to protein as measured in the extracts. Protein was measured by the BCA method (Pierce, Rockford, Ill.). Activity was expressed as the change in absorbance/min/mg protein.

sensitized rats = assay: Colorectal distention (CRD) sensitivity in visceral sensitization model; assay type: in vivo, rat
Method: New born rats were sensitized by infusion of 0.2 mls of 0.5% acetic acid into the colon at P10, control animals received saline.
At eight weeks of age, rats in four treatment groups: control+vehicle (n=3), control+cni-1493 (n=3), sensitized+vehicle (n=8), sensitized+cni-1493 (n=8) were tested after administration of drug (dissolved in 2.5% mannitol, injected i.p. at 5mg/kg for four days) for sensitivity to colorectal distention (CRD). Vehicle injected animals received 2.5% mannitol in water.
For electromyographic (EMG) measurements of visceromotor responses, under anesthesia (Nembutal, 50 mg/kg i.p.), two electrodes were implanted in the abdominal wall muscles and externalized behind the head. Rats were allowed a one week recovery time from this surgery. Under mild sedation (Brevital, […]), a 7 cm flexible balloon constructed from a surgical glove finger attached to tygon tubing was inserted into the descending colon and rectum via the anus and held in place by taping the tubing to the tail. Rats were housed in small Lucite cubicles (20×8×8 cm) and were allowed to adapt for one hour. CRD was performed by rapidly inflating the balloon to constant pressure. Pressure was measured using a sphygmomanometer connected to a pressure transducer. Rats were given graded CRD (20, 40, 60, 80 mm Hg) applied for 20 seconds every 4 minutes. […]

CC(=NN=C(N)N)c1cc(NC(=O)CCCCCCCCC(=O)Nc2cc(C(C)=NN=C(N)N)cc(C(C)=NN=C(N)N)c2)cc(C(C)=NN=C(N)N)c1.Cl.Cl.Cl.Cl [CNI-1493, N,N′-bis[3,5-diacetylphenl] decanediamidetetrakis[amidinohydrazone] tetrahvdrochloride]
MPO activity in colon (Myeloperoxidase (MPO)): significantly lowered
Chronic visceral hypersensitivity (CVH) (sensitized rats; sensitized animals, CNI1493 treatment): ameliorates CVH
Sensitivity to CRD (sensitized rats; sensitized rats, 5 mg/kg i.p. for four days, graded CRD, vs vehicle, 5 mg/kg): significant effect; also recorded: significantly reduced
